# Target: NS3/NS4 complexes (Hepatitis C virus genotype 1a, UniProt P27958)
# Assay: NS3/NS4 inhibition activity (IC50)
# Format: biochemical
# Conditions: IC50, Table 3
# Description: NS3-NS4 inhibition activity can be determined using known assay methods. For example, NS3/NS4 complexes may be formed and inhibitory concentrations of test compounds determined as described in U.S. Patent Application Publication Number 2007/0054842 paragraph numbers 1497-1509, which is incorporated herein by reference in its entirety. Similarly, hepatitis C replicon EC50 may be determined using known assay methods such as described in U.S. Patent Application Publication Number 2007/0054842 paragraph numbers 1510-1515. Assays may be conducted at ambient temperature (23° C.) in assay buffer containing 50 mM Tris-HCl, pH 7.5, 15% glycerol, 0.6 mM Lauryldimethylamine Oxide (LDAO), 25 μM NS4A peptide, and 10 mM Dithiothreitol (DTT).
# NS3/NS4 complexes, sequence (P27958 1027-1657): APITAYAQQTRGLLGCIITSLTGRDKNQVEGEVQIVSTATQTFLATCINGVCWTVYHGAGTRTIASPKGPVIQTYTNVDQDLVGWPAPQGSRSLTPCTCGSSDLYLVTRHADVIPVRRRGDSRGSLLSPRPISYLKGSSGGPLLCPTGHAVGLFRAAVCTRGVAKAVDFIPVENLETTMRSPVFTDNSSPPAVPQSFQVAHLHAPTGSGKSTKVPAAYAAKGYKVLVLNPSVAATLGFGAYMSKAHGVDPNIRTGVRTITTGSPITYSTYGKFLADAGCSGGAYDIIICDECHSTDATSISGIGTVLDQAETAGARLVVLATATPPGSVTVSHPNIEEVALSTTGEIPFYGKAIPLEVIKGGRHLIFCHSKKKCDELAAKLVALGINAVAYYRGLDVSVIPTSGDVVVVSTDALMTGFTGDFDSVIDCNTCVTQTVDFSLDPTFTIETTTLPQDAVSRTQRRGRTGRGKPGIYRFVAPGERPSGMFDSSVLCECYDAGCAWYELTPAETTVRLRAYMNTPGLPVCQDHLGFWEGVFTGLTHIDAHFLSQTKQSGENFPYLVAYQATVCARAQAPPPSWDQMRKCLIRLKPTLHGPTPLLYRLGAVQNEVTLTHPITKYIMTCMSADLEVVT
# NS3/NS4 complexes, sequence (P27958 1658-1711): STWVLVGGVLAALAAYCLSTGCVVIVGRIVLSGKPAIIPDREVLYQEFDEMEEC
row,Structure (SMILES),IC50 [nM]
1,CC(C)(C)OC(=O)N[C@H]1CCCCC/C=C\[C@@H]2C[C@@]2(C(=O)N2CCC[C@H]2C(=O)NCc2ccccc2)NC(=O)[C@@H]2C[C@@H](OC(=O)N3Cc4cccc(F)c4C3)CN2C1=O [Compound 1054],> 100
2,CC(C)(C)OC(=O)N[C@H]1CCCCC/C=C\[C@@H]2C[C@@]2(C(=O)NCC(=O)NCc2ccccc2)NC(=O)[C@@H]2C[C@@H](O)CN2C1=O [Compound 1055],> 100
3,CC(C)(C)OC(=O)N[C@H]1CCCCC/C=C\[C@@H]2C[C@@]2(C(=O)N2CCC[C@H]2C(=O)NCc2ccccc2)NC(=O)[C@@H]2C[C@@H](O)CN2C1=O [Compound 1056],> 100
4,CC(=O)O[C@@H]1C[C@H]2C(=O)N[C@]3(C(=O)NCC(=O)NCc4ccccc4)C[C@H]3/C=C\CCCCC[C@H](NC(=O)OC(C)(C)C)C(=O)N2C1 [Compound 1060],> 100
5,CO[C@@H]1C[C@H]2C(=O)N[C@]3(C(=O)NCC(=O)NCc4ccccc4)C[C@H]3/C=C\CCCCC[C@H](NC(=O)OC(C)(C)C)C(=O)N2C1 [Compound 1063],> 100
6,CO[C@@H]1C[C@H]2C(=O)N[C@]3(C(=O)N4CCC[C@H]4C(=O)NCc4ccccc4)C[C@H]3/C=C\CCCCC[C@H](NC(=O)OC(C)(C)C)C(=O)N2C1 [Compound 1064],> 100
7,CN(C)C(=O)O[C@@H]1C[C@H]2C(=O)N[C@]3(C(=O)NCC(=O)NCc4ccccc4)C[C@H]3/C=C\CCCCC[C@H](NC(=O)OC(C)(C)C)C(=O)N2C1 [Compound 1066],> 100
8,CN(C)C(=O)O[C@@H]1C[C@H]2C(=O)N[C@]3(C(=O)N4CCC[C@H]4C(=O)NCc4ccccc4)C[C@H]3/C=C\CCCCC[C@H](NC(=O)OC(C)(C)C)C(=O)N2C1 [Compound 1068],> 100
9,CC(C)(C)OC(=O)N[C@H]1CCCCC/C=C\[C@@H]2C[C@@]2(C(=O)N2CCC[C@@H]2C(=O)NCc2ccccc2)NC(=O)[C@@H]2C[C@@H](O)CN2C1=O [Compound 1087],> 100
10,CC(=O)O[C@@H]1C[C@H]2C(=O)N[C@]3(C(=O)N4CCC[C@@H]4C(=O)NCc4ccccc4)C[C@H]3/C=C\CCCCC[C@H](NC(=O)OC(C)(C)C)C(=O)N2C1 [Compound 1088],> 100
11,CO[C@@H]1C[C@H]2C(=O)N[C@]3(C(=O)N4CCC[C@@H]4C(=O)NCc4ccccc4)C[C@H]3/C=C\CCCCC[C@H](NC(=O)OC(C)(C)C)C(=O)N2C1 [Compound 1089],> 100

# Same assay, conditions: Table 2, read-out: IC50
row,Structure (SMILES),IC50 [nM]
1,O=C1N[C@]2(C(=O)O)C[C@H]2/C=C\CCCCC[C@H](Nc2cccc(F)c2)C(=O)N2C[C@H](Oc3nc4ccccc4s3)C[C@@H]12 [Compound 123],75 to 500
2,COc1cccc(N[C@H]2CCCCC/C=C\[C@@H]3C[C@@]3(C(=O)O)NC(=O)[C@@H]3C[C@@H](Oc4nc5ccccc5s4)CN3C2=O)c1 [Compound 132],75 to 500
3,O=C1N[C@]2(C(=O)O)C[C@H]2/C=C\CCCCC[C@H](Nc2cc(F)cc(C(F)(F)F)c2)C(=O)N2C[C@H](Oc3nc4ccccc4s3)C[C@@H]12 [Compound 321],10 to 75
4,O=C1N[C@]2(C(=O)O)C[C@H]2/C=C\CCCCC[C@H](Nc2cc(F)cc(C(F)(F)F)c2)C(=O)N2C[C@H](Oc3nc4ccc(Cl)cc4s3)C[C@@H]12 [Compound 322],10 to 75
5,Cc1ccc2nc(O[C@@H]3C[C@H]4C(=O)N[C@]5(C(=O)O)C[C@H]5/C=C\CCCCC[C@H](Nc5cc(F)cc(C(F)(F)F)c5)C(=O)N4C3)sc2c1 [Compound 323],< 10
6,O=C1N[C@]2(C(=O)O)C[C@H]2/C=C\CCCCC[C@H](Nc2cc(F)cc(F)c2)C(=O)N2C[C@H](Oc3nc4ccccc4s3)C[C@@H]12 [Compound 324],10 to 75
7,O=C1N[C@]2(C(=O)O)C[C@H]2/C=C\CCCCC[C@H](Nc2ccc3ccccc3c2)C(=O)N2C[C@H](Oc3nc4ccccc4s3)C[C@@H]12 [Compound 327],10 to 75
8,O=C1N[C@]2(C(=O)O)C[C@H]2/C=C\CCCCC[C@H](Nc2ccc(C(F)(F)F)cc2)C(=O)N2C[C@H](Oc3nc4ccccc4s3)C[C@@H]12 [Compound 329],75 to 500
9,O=C1N[C@]2(C(=O)O)C[C@H]2/C=C\CCCCC[C@H](Nc2ccc(F)c(F)c2)C(=O)N2C[C@H](Oc3nc4ccccc4s3)C[C@@H]12 [Compound 343],75 to 500
10,O=C1N[C@]2(C(=O)O)C[C@H]2/C=C\CCCCC[C@H](Nc2cc(Cl)cc(Cl)c2)C(=O)N2C[C@H](Oc3nc4ccccc4s3)C[C@@H]12 [Compound 344],75 to 500
11,COc1ccc2c(O[C@@H]3C[C@H]4C(=O)N[C@]5(C(=O)NS(=O)(=O)C6(C)CC6)C[C@H]5/C=C\CCCCC[C@H](Nc5cc(F)cc(C(F)(F)F)c5)C(=O)N4C3)cc(-c3ccccc3)nc2c1 [Compound 357],10 to 75
12,COc1ccc2c(O[C@@H]3C[C@H]4C(=O)N[C@]5(C(=O)O)C[C@H]5/C=C\CCCCC[C@H](Nc5cccc(F)c5)C(=O)N4C3)cc(-c3nc(C(C)C)cs3)nc2c1C [Compound 448],< 10

# Same assay, conditions: Table 3, read-out: IC50
row,Structure (SMILES),IC50 [nM]
1,CC(C)(C)OC(=O)N[C@H]1CCCCC/C=C\[C@@H]2C[C@@]2(C(=O)NOc2ccccc2)NC(=O)[C@@H]2C[C@@H](Oc3nc4ccccc4s3)CN2C1=O [Compound 1020],10 to 100
2,CC(C)(C)OC(=O)N[C@H]1CCCCC/C=C\[C@@H]2C[C@@]2(C(=O)NOc2ccccc2)NC(=O)[C@@H]2C[C@@H](Oc3nc4ccc(F)cc4s3)CN2C1=O [Compound 1021],10 to 100
3,CC(C)(C)OC(=O)N[C@H]1CCCCC/C=C\[C@@H]2C[C@@]2(C(=O)NOc2ccccc2)NC(=O)[C@@H]2C[C@@H](Oc3nc4ccc(Br)cc4s3)CN2C1=O [Compound 1022],> 100
4,CC(C)(C)OC(=O)N[C@H]1CCCCC/C=C\[C@@H]2C[C@@]2(C(=O)NOc2ccccc2)NC(=O)[C@@H]2C[C@@H](Oc3nc4ccc(Cl)cc4s3)CN2C1=O [Compound 1023],> 100
5,Cc1ccc2nc(O[C@@H]3C[C@H]4C(=O)N[C@]5(C(=O)NOc6ccccc6)C[C@H]5/C=C\CCCCC[C@H](NC(=O)OC(C)(C)C)C(=O)N4C3)sc2c1 [Compound 1024],> 100
6,COc1ccc2nc(O[C@@H]3C[C@H]4C(=O)N[C@]5(C(=O)NOc6ccccc6)C[C@H]5/C=C\CCCCC[C@H](NC(=O)OC(C)(C)C)C(=O)N4C3)sc2c1 [Compound 1025],> 100
7,CC(C)(C)OC(=O)N[C@H]1CCCCC/C=C\[C@@H]2C[C@@]2(C(=O)O)NC(=O)[C@@H]2C[C@@H](Oc3nc4ccc(Cl)cc4o3)CN2C1=O [Compound 1041],> 100
8,CC(C)(C)OC(=O)N[C@H]1CCCCC/C=C\[C@@H]2C[C@@]2(C(=O)O)NC(=O)[C@@H]2C[C@@H](Oc3nc4cccc(F)c4o3)CN2C1=O [Compound 1042],10 to 100
9,CC(C)(C)OC(=O)N[C@H]1CCCCC/C=C\[C@@H]2C[C@@]2(C(=O)O)NC(=O)[C@@H]2C[C@@H](Oc3nc4cc(F)ccc4o3)CN2C1=O [Compound 1043],10 to 100
10,Cc1ccc2oc(O[C@@H]3C[C@H]4C(=O)N[C@]5(C(=O)O)C[C@H]5/C=C\CCCCC[C@H](NC(=O)OC(C)(C)C)C(=O)N4C3)nc2c1 [Compound 1044],> 100
11,CC(=O)O[C@@H]1C[C@H]2C(=O)N[C@]3(C(=O)NCCC(=O)NCc4ccccc4)C[C@H]3/C=C\CCCCC[C@H](NC(=O)OC(C)(C)C)C(=O)N2C1 [Compound 1059],> 100
12,CN(C)C(=O)O[C@@H]1C[C@H]2C(=O)N[C@]3(C(=O)NCCC(=O)NCc4ccccc4)C[C@H]3/C=C\CCCCC[C@H](NC(=O)OC(C)(C)C)C(=O)N2C1 [Compound 1067],> 100

# From patent publication US8048862B2, “Macrocyclic inhibitors of hepatitis C virus replication” (priority 2008, dated 2011)
